For 8 compounds, IC50 results are on record in patent US9175011B2, “Morpholino substituted urea or carbamate derivatives as MTOR inhibitors” (CELLZOME LIMITED, priority 2011, dated 2015).

The structures appear in SMILES notation.

In one assay the target is T1, mTOR (Homo sapiens, UniProt P42345).
T1 construct: Jurkat cells were homogenized in a Potter S homogenizer in lysis buffer; endogenous in cells; host or cells: Jurkat, clone E6-1 (ATCC TIB-152) lysate
Kind of assay: mTOR kinobeads assay (Jurkat cell lysate, dot blot detection). It counts as binding. As to conditions: read-out: Inhibition values (IC50) mTor. How it is done:
(§1) The compounds of the present invention as described were tested in the mTOR kinobeads assay as described below. Briefly, test compounds (at various concentrations) and the affinity matrix (1:1 mixture of beads with immobilized phenylthiazole ligand 1 and beads with immobilized phenylmorpholin-chromen ligand; WO 2009/098021) were added to cell lysate aliquots and allowed to bind to the proteins in the lysate sample. After the incubation time the beads with captured proteins were separated from the lysate. Bound proteins were then eluted and the presence of mTOR, PI3K alpha (PI3Kα), PI3K beta (PI3Kb), PI3K gamma (PI3Kg), PI3K delta (PI3Kd) and DNA-dependent protein kinase (DNA-PK) was detected and quantified using a specific antibody in a dot blot procedure and the Odyssey infrared detection system. Dose response curves for individual kinases were generated and IC50 values calculated. Kinobeads assays for PI3 kinases (WO-A 2008/015013) and for kinase selectivity profiling (WO 2009/098021) have been previously described.
(§2) The affinity matrix (beads with immobilized phenylmorpholin-chromen ligand) was washed three times with 15 ml of 1×DP buffer containing 0.2% NP40 (IGEPAL® CA-630, Sigma, #13021) and then resuspended in 5.5 ml of 1×DP buffer containing 0.2% NP40 (10% beads slurry).
(§3) 5×DP buffer: 250 mM Tris-HCl pH 7.4, 25% Glycerol, 7.5 mM MgCl2, 750 mM NaCl, 5 mM Na3VO4, filter the 5×-lysis buffer through 0.22 μm filter and store in aliquots at −80° C. The 5×DP buffer is diluted to 1×DP buffer containing 1 mM DTT and 25 mM NaF.
(§4) Stock solutions of test compounds were prepared in DMSO. In a 96 well plate 30 μl solution of diluted test compounds at 5 mM in DMSO were prepared. Starting with this solution a 1:3 dilution series (9 steps) was prepared. For control experiments (no test compound) a buffer containing 2% DMSO was used. Compound PI-103 served as a positive control (Calbiochem catalogue number 528100).
(§5) Jurkat cells (ATCC catalogue number TIB-152 Jurkat, clone E6-1) were grown in 1 liter Spinner flasks (Integra Biosciences, #182101) in suspension in RPMI 1640 medium (Invitrogen, #21875-034) supplemented with 10% Fetal Bovine Serum (Invitrogen) at a density between 0.15×10^6 and 1.2×10^6 cells/ml. Cells were harvested by centrifugation, washed once with 1×PBS buffer (Invitrogen, #14190-094) and cell pellets were frozen in liquid nitrogen and subsequently stored at −80° C.
(§6) Jurkat cells were homogenized in a Potter S homogenizer in lysis buffer: 50 mM Tris-HCl, 0.8% NP40, 5% glycerol, 150 mM NaCl, 1.5 mM MgCl2, 25 mM NaF, 1 mM sodium vanadate, 1 mM DTT, pH 7.5. One complete EDTA-free tablet (protease inhibitor cocktail, Roche Diagnostics, 1873580) per 25 ml buffer was added. The material was dounced 10 times using a mechanized POTTER S, transferred to 50 ml falcon tubes, incubated for 30 minutes on ice and spun down for 10 min at 20,000 g at 4° C. (10,000 rpm in Sorvall SLA600, precooled). The supernatant was transferred to an ultracentrifuge (UZ)-polycarbonate tube (Beckmann, 355654) and spun for 1 hour at 100.000 g at 4° C. (33.500 rpm in Ti50.2, precooled). The supernatant was transferred again to a fresh 50 ml falcon tube, the protein concentration was determined by a Bradford assay (BioRad) and samples containing 50 mg of protein per aliquot were prepared. The samples were immediately used for experiments or frozen in liquid nitrogen and stored frozen at −80° C.
(§7) Jurkat cell lysate (approximately 50 mg protein per plate) was thawed in a water bath at room temperature and then kept on ice. To the thawed cell lysate 1×DP 0.8% NP40 buffer containing protease inhibitors (1 tablet for 25 ml buffer; EDTA-free protease inhibitor cocktail; Roche Diagnostics 1873580) was added in order to reach a final protein concentration of 5 mg/ml total protein. The diluted cell lysate was stored on ice. […]

The next assay has as its target T2, PI3K alpha (PI3Kα) (Homo sapiens, UniProt P42336).
T2 construct: Jurkat cells were homogenized in a Potter S homogenizer in lysis buffer; endogenous in cells; host or cells: Jurkat, clone E6-1 (ATCC TIB-152) lysate
The assay can be described thus: kinobeads assay, PI3K alpha. Format: binding. As to conditions: Jurkat cell lysate, read-out: Inhibition values (IC50) PI3Ka. How it is done:
as §1, §2, §3, §4, §5, §6, §7

Another assay deals with T3, PI3K beta (PI3Kb) (Homo sapiens, UniProt P42338).
T3 construct: Jurkat cells were homogenized in a Potter S homogenizer in lysis buffer; endogenous in cells; host or cells: Jurkat, clone E6-1 (ATCC TIB-152) lysate
Kind of assay: kinobeads assay, PI3K beta. It counts as binding. As to conditions: Jurkat cell lysate, read-out: Inhibition values (IC50) PI3Kb. The protocol: as §1, §2, §3, §4, §5, §6, §7

The target in a further assay is T4, PI3K gamma (PI3Kg) (Homo sapiens, UniProt P48736).
T4 construct: Jurkat cells were homogenized in a Potter S homogenizer in lysis buffer; endogenous in cells; host or cells: Jurkat, clone E6-1 (ATCC TIB-152) lysate
Kind of assay: kinobeads assay, PI3K gamma. The following applies: Jurkat cell lysate, read-out: Inhibition values (IC50) PI3Kg. It counts as binding. The protocol:
as §1, §2, §3, §4, §5, §6, §7

The next assay has as its target T5, PI3K delta (PI3Kd) (Homo sapiens, UniProt O00329).
T5 construct: Jurkat cells were homogenized in a Potter S homogenizer in lysis buffer; endogenous in cells; host or cells: Jurkat, clone E6-1 (ATCC TIB-152) lysate
The assay can be described thus: kinobeads assay, PI3K delta. The following applies: Jurkat cell lysate, read-out: Inhibition values (IC50) PI3Kd. Format: binding. How it is done: as §1, §2, §3, §4, §5, §6, §7

Assay [1] has as its target T6, DNA-dependent protein kinase (DNA-PK) (Homo sapiens, UniProt P78527).
T6 construct: Jurkat cells were homogenized in a Potter S homogenizer in lysis buffer; endogenous in cells; host or cells: Jurkat, clone E6-1 (ATCC TIB-152) lysate
The assay can be described thus: kinobeads assay, DNA-PK. As to conditions: Jurkat cell lysate, read-out: Inhibition values (IC50) DNA-PK. Format: binding. The protocol:
as §1, §2, §3, §4, §5, §6, §7

Assay [2] deals with S6RP serine-240/244 phosphorylation. Kind of assay: In vitro phospho-S6 cellular assay (HEK293T/17). Format: cell-based. The following applies: Homo sapiens; HEK293T/17 cells, 2 hours, pS6RP Ser240/244; read-out: Inhibition values (IC50) pS6. An excerpt:
Activation of mTOR signaling results in phosphorylation of several downstream targets. In cells, mTOR exists in two different protein complexes. The mTOR Complex-1 (mTORC1) phosphorylates and activates S6 Kinase 1 (S6K1) and S6 Kinase 2 (S6K2) (also known as p70S6K) which then phosphorylate S6 Ribosomal Protein (S6RP) (also known as RPS6)3. S6RP is phosphorylated on serine 235, senile 236, serine 240 and serine 244 by both pS6K1 and pS6K2. The mTOR Complex-2 (mTORC2) phosphorylates AKT on serine 473 which activates the AKT signaling pathway.
The assay measures a test compound's inhibition of S6RP serine-240/244 phosphorylation and inhibition of Akt serine-473 phosphorylation in human embryonic kidney derived HEK293T/17 cells (ATCC CRL-11268).
The HEK293T/17 cell line is maintained in DMEM media (Invitrogen catalogue number 41965-039) supplemented with 10% FCS at 37° C. in a 5% CO2 humidified incubator. Cells are seeded in 96-well plates at 40,000 cells/well (pS6RP S240/244 assay) or 80,000 cells/well (pAkt 5473 assay) in 90 μl growth media (DMEM, 2% FCS). Plates are incubated for 1 hour in a humidified incubator to allow the cells to adhere. Cells are treated with 8 concentrations of test compounds or DMSO alone for controls (final DMSO concentration 0.1%) and incubated at 37° C. for 2 hours. Then 20 μl of 5× concentrated lysis buffer (750 mM NaCl, 100 mM Tris pH7.4, 5 mM ADTA, 5 mM EGTA, 5% Triton X-100) is added, plates are sealed and incubated for 15 minutes at 4° C. with gentle shaking After cell lysis, 25 μl cell lysate is transferred to a MesoScale plate coated with an antibody to pS6RP Ser240/244 (MesoScale Discovery K150DGD-3) or an antibody to pAkt Ser 473 (MesoScale Discovery K151DGD-3). Plates have been blocked before by incubation with 150 μl MesoScale Discovery Blocking Solution-A for 1 hour at room temperature followed by washing with 150 μl 1×Tris wash buffer per well. After the transfer of the cell lysate to the MSD plate, the pS6RP (or pAkt) protein is captured on the coated antibody by incubation at room temperature for 1 hour with gentle shaking. After the capture step the plate is washed three times with 150 μl of 1× Tris wash buffer per well. Then 25 μl detection antibody conjugated with a Sulfo-Tag is added and incubated for 1 hour at room temperature with gentle shaking. Subsequently the antibody solution is removed and the plate is washed 3 times with 150 μl 1×Tris wash buffer per well and 150 μl Read buffer is added. The plates are analysed on a MSD 2400 Plate Reader (MesoScale Discovery). Data analysis is performed using nonlinear regression for a sigmoidal dose-response with a variable slope.

The IC50 is the midpoint of a concentration-inhibition curve.

T6 sequence (P78527 whole entry): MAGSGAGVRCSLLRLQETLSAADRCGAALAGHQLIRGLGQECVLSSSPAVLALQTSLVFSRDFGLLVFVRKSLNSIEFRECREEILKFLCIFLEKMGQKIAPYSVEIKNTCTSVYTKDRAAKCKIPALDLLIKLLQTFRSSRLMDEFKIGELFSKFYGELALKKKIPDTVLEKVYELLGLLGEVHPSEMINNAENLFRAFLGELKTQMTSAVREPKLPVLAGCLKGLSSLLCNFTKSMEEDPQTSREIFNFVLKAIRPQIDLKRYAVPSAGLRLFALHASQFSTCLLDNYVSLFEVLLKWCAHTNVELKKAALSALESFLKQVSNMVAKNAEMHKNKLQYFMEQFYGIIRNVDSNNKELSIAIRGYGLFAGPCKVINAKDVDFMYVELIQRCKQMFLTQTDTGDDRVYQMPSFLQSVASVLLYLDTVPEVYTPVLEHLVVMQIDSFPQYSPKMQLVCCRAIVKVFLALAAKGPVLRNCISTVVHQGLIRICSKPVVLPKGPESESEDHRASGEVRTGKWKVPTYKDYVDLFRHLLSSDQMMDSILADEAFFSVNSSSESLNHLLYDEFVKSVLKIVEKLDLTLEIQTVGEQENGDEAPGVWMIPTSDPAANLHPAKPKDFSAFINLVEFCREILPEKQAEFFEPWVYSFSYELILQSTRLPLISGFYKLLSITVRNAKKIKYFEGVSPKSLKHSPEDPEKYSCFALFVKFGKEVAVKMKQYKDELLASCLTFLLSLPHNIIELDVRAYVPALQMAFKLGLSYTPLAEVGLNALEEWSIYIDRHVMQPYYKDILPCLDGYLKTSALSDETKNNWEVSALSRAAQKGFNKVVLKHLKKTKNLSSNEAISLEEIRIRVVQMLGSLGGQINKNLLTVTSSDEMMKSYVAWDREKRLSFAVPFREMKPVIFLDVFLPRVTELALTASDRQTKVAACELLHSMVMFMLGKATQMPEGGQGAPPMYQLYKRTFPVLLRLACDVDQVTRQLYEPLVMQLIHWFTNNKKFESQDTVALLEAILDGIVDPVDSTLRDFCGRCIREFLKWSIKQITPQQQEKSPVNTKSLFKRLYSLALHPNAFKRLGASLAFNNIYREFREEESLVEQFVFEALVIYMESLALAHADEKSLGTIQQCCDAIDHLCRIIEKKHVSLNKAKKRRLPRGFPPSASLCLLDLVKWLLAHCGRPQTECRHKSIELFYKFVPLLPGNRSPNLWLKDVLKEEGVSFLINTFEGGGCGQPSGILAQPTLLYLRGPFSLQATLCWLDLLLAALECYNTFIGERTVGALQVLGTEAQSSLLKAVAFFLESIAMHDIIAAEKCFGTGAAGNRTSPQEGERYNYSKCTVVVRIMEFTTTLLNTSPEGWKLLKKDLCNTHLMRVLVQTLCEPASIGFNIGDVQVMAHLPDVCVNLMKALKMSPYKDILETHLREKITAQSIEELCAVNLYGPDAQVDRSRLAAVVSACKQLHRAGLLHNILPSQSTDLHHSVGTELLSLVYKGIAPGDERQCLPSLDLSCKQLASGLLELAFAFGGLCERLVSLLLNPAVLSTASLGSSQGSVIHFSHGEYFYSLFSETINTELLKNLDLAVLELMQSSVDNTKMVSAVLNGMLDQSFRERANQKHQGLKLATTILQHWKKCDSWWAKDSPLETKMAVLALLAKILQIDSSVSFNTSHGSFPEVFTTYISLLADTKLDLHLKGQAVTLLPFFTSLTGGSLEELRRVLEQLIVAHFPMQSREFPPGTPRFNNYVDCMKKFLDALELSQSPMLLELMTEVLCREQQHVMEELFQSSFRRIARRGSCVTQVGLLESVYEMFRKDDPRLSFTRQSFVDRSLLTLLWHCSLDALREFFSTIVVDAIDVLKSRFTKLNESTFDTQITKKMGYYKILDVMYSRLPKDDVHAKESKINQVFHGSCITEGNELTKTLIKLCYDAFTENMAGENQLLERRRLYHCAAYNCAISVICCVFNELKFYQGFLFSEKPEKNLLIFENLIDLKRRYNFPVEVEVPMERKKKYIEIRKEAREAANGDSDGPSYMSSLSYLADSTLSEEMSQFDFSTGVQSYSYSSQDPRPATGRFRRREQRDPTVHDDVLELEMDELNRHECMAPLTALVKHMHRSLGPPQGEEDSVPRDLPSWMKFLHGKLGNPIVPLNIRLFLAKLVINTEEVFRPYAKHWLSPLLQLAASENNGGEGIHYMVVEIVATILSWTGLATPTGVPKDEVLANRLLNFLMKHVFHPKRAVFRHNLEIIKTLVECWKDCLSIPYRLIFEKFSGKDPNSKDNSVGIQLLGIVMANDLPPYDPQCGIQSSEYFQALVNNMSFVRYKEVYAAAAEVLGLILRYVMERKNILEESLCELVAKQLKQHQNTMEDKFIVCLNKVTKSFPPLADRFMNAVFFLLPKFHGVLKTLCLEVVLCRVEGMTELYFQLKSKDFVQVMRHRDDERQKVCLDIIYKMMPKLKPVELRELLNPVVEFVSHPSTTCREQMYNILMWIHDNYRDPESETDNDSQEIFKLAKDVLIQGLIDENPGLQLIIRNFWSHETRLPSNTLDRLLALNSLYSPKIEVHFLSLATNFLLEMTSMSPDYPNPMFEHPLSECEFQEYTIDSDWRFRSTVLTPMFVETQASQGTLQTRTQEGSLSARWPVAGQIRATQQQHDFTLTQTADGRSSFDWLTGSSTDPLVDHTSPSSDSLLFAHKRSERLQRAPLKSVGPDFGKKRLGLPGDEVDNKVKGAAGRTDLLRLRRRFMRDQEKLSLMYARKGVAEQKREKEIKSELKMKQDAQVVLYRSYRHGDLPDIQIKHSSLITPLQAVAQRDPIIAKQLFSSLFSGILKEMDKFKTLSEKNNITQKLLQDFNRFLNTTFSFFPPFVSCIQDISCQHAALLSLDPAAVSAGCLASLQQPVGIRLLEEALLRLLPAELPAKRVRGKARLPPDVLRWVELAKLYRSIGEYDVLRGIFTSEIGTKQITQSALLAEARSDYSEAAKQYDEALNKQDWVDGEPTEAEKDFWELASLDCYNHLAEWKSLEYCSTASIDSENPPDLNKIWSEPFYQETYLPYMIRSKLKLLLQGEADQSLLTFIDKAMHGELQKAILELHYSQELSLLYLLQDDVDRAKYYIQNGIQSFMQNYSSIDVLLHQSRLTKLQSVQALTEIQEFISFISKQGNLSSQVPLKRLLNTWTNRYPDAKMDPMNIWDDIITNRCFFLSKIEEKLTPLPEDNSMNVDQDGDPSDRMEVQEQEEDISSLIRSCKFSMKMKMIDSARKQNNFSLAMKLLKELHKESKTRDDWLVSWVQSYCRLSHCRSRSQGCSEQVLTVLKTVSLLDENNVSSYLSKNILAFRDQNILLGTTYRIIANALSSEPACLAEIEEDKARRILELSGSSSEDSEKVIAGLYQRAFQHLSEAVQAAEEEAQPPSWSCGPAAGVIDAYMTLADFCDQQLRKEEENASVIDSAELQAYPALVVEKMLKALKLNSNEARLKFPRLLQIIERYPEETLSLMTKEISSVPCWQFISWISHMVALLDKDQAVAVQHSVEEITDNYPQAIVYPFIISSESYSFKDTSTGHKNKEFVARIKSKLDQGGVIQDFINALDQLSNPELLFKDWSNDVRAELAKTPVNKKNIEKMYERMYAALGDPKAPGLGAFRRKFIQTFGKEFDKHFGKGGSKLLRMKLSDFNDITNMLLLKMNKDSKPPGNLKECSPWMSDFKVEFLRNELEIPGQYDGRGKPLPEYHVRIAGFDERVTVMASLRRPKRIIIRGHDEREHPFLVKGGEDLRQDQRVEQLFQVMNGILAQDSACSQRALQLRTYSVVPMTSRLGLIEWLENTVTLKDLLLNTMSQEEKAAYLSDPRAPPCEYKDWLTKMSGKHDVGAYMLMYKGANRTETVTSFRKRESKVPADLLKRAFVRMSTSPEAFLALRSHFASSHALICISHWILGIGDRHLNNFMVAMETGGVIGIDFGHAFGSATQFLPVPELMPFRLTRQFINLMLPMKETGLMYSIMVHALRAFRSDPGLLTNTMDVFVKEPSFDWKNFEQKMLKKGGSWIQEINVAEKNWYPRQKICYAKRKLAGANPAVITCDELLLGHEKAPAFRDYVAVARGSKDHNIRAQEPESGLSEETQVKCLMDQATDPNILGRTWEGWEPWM

For the compound `C[C@H]1COCCN1c1nc(-c2ccc(NC(=O)Nc3cccnc3)cc2)nc(-c2ccccc2S(C)(=O)=O)n1` [Example 3, (S)-1-(4-(4-(3-methylmorpholino)-6-(2-(methylsulfonyl)phenyl)-1,3,5-triazin-2-yl)phenyl)-3-(pyridin-3-yl)urea], the half-maximal inhibitory concentration (IC50) is 0.1 to 1 µM at mTOR; greater than 10 µM at PI3K alpha (PI3Kα); greater than 10 µM on PI3K beta (PI3Kb); greater than 10 µM at PI3K gamma (PI3Kg); greater than 10 µM on PI3K delta (PI3Kd); greater than 10 µM in assay [1]. The IC50 in assay [2] was less than 0.1 µM.
`C[C@H]1COCCN1c1nc(-c2ccc(NC(=O)NC3COC3)cc2)nc(-c2ccccc2S(C)(=O)=O)n1` [Example 9, (S)-1-(4-(4-(3-methylmorpholin)-6-(2-(methylsulfonyl)phenyl)-1,3,5-triazin-2-yl)phenyl)-3-(oxetan-3-yl)urea]: the half-inhibitory concentration (IC50) at mTOR is 0.1 to 1 µM; at PI3K alpha (PI3Kα), greater than 10 µM; at PI3K beta (PI3Kb) it was greater than 10 µM; on PI3K gamma (PI3Kg), greater than 10 µM; on PI3K delta (PI3Kd), greater than 10 µM; in assay [1], greater than 10 µM. Moreover, the IC50 in assay [2] was in the range of 0.1 to 1 µM.
For `CS(=O)(=O)c1ccccc1-c1nc(-c2ccc(NC(=O)NC3CC3)cc2)nc(N2CC3CCC(C2)O3)n1` [Example 11, 1-(4-(4-(8-oxa-3-azabicyclo[3.2.1]octan-3-yl)-6-(2-(methylsulfonyl)phenyl)-1,3,5-triazin-2-yl)phenyl)-3-cyclopropylurea], the IC50 at mTOR was less than 0.1 µM; at PI3K alpha (PI3Kα), greater than 10 µM; on PI3K beta (PI3Kb), greater than 10 µM; at PI3K gamma (PI3Kg), greater than 10 µM; at PI3K delta (PI3Kd), greater than 10 µM; in assay [1] it was greater than 10 µM. Moreover, the IC50 in assay [2] was less than 0.1 µM.
In the case of `CS(=O)(=O)c1ccccc1-c1nc(-c2ccc(NC(=O)NC3CC3)cc2)nc(N2CCOCC2)n1` [Example 12, 1-cyclopropyl-3-(4-(4-(2-(methylsulfonyl)phenyl)-6-morpholino-1,3,5-triazin-2-yl)phenyl)urea], the IC50 on mTOR is 0.1 to 1 µM; on PI3K alpha (PI3Kα) it was greater than 10 µM; on PI3K beta (PI3Kb), greater than 10 µM; on PI3K gamma (PI3Kg) it was greater than 10 µM; on PI3K delta (PI3Kd), greater than 10 µM; in assay [1] it was greater than 10 µM. In assay [2], the IC50 lay within 0.1 to 1 µM.
As for `C[C@@H]1COCCN1c1nc(-c2ccc(NC(=O)NC3CC3)cc2)nc(-c2ccccc2S(C)(=O)=O)n1` [Example 13, (R)-1-cyclopropyl-3-(4-(4-(3-methylmorpholino)-6-(2-(methylsulfonyl)phenyl)-1,3,5-triazin-2-yl)phenyl)urea], the IC50 at mTOR is 0.1 to 1 µM; at PI3K alpha (PI3Kα) it was greater than 10 µM; on PI3K beta (PI3Kb) it was greater than 10 µM; at PI3K gamma (PI3Kg), greater than 10 µM; on PI3K delta (PI3Kd), greater than 10 µM; in assay [1], greater than 10 µM. Further, in assay [2], the IC50 was less than 0.1 µM.
As to `C[C@H]1COCCN1c1nc(-c2ccc(NC(=O)NCC(C)(C)C)cc2)nc(-c2ccccc2S(C)(=O)=O)n1` [Example 30, (S)-1-(4-(4-(3-methylmorpholino)-6-(2-(methylsulfonyl)phenyl)-1,3,5-triazin-2-yl)phenyl)-3-neopentylurea], the 50% inhibitory concentration (IC50) at mTOR was 1 to 10 µM; at PI3K alpha (PI3Kα), greater than 10 µM; on PI3K beta (PI3Kb), greater than 10 µM; at PI3K gamma (PI3Kg), greater than 10 µM; at PI3K delta (PI3Kd), greater than 10 µM; in assay [1] it was greater than 10 µM.
In the case of `C[C@H]1COCCN1c1nc(-c2ccc(NC(=O)NCCC(F)(F)F)cc2)nc(-c2ccccc2S(C)(=O)=O)n1` [Example 31, (S)-1-(4-(4-(3-methylmorpholino)-6-(2-(methylsulfonyl)phenyl)-1,3,5-triazin-2-yl)phenyl)-3-(3,3,3-trifluoropropyl)urea], the IC50 on mTOR was 1 to 10 µM; on PI3K alpha (PI3Kα), greater than 10 µM; on PI3K beta (PI3Kb), greater than 10 µM; at PI3K gamma (PI3Kg), greater than 10 µM; at PI3K delta (PI3Kd), greater than 10 µM; in assay [1], greater than 10 µM.
With `C[C@H]1COCCN1c1nc(-c2ccc(NC(=O)NCCC(O)C(F)(F)F)cc2)nc(-c2ccccc2S(C)(=O)=O)n1` (stereo partly drawn) [Example 38, 1-(4-(4-((S)-3-methylmorpholino)-6-(2-(methylsulfonyl)phenyl)-1,3,5-triazin-2-yl)phenyl)-3-(4,4,4-trifluoro-3-hydroxybutyl)urea], the IC50 (on mTOR; at PI3K alpha (PI3Kα); at PI3K beta (PI3Kb); on PI3K gamma (PI3Kg); on PI3K delta (PI3Kd); in assay [1]) was greater than 10 µM throughout.
